Laboratory results published in PMC4045308 (Investigational New Drugs, 2013).
“And” between values parts separate entries of the source, which are not always exact repeats. Identical values can stand only once. Like-named read-outs stand apart in the source and are kept apart here. Marks after values point to notes of the source that are not given here.

Experiments:
[1] = tested on: advanced heme-lymphatic malignancies (MM, NHL, CLL); experiment: phase I study: antitumor response; type: in vivo, patients
Procedure: Response was evaluated according to the International Working Group criteria for patients with lymphoma, the International Myeloma Working Group uniform response criteria for patients with MM [28], and the International Workshop on CLL guidelines.

mantle cell lymphoma = details: cited from earlier work
AAK [2] = details: read-out: inhibition constant (Ki); cited from earlier work
PTCL cell lines = details: cited from earlier work
AAK [3] = details: cell-based assays; cited from earlier work
[4] = cited from earlier work
xenograft MM model = details: cited from earlier work
[5] = in vivo
[6] = phase I study: DLTs and MTD
Procedure: Dosing schedules are summarized in Supplementary Fig. S1 (online only). The PIC formulation starting dose was 25 or 35 mg/day. […] For the ECT formulation, the starting dose was 40 mg/day QD for 14 days followed by 14 days’ rest in 28-day cycles.
If 2 of the first 3–6 patients experienced DLTs at a given dose level, dose escalation was delayed while the available safety/clinical data were assessed and a decision made on how to proceed with a modified dose or schedule. […] The use of myeloid growth factors (G-CSF or GM-CSF) or erythropoiesis-stimulating agents was permitted after the DLT evaluation period was completed (cycle 1) and on a case-by-case basis after cycle 2. Treatment continued for up to 12 months, or until disease progression or unacceptable toxicity, with the possibility of treatment extension beyond 12 months if clinical benefit was evident and toxicities were manageable.

Aurora B kinase = details: cell-based assays; cited from earlier work
[7] = tested on: multiple myeloma (MM) cells; details: in vitro; cited from earlier work
[8] = phase I study: plasma pharmacokinetics; type: in vivo, patients; details: for AUC(0-t) / Tmax / half-life: human, plasma, oral; for AUC(0-t): read-out: Geometric mean AUC0–tlast (CV, %); for Tmax: read-out: Median Tmax (range)
Excerpt: PK parameters included: area under the plasma concentration versus time curve, maximum plasma concentration, time to maximum plasma concentration (Tmax), terminal half-life (t1/2), accumulation ratio (Rac), and peak/trough ratio. Secondary endpoints were response rate, duration of response, and evaluation of banked tumor tissue samples for AAK protein expression and gene amplification.
Plasma samples were collected in cycle 1 at various time points on the first day (day 1) and last day (day 7, ECT 7-day schedule; day 14, PIC or ECT 14-day schedules; day 21, PIC 21-day schedule) of treatment. PK parameters were calculated by non-compartmental analysis using WinNonlin software (v5.2.1, Pharsight Corporation, Cary, NC).

[9] = tested on: aggressive B- and T-cell NHL; details: 50 mg BID, cited from earlier work
[10] = phase I study: adverse events (NCI-CTCAE v3.0)
[11] = twice-daily (BID), 7-day schedule in 21-day cycles, solid tumors; cited from earlier work
[12] = 30 mg, ECT 30 mg BID, 7-day schedule, Day 1, first dose, N 3
[13] = 30 mg, ECT 30 mg BID, 7-day schedule, Day 7, N 3
[14] = 40 mg, ECT 40 mg BID, 7-day schedule, Day 1, first dose, N 9
[15] = 40 mg, ECT 40 mg BID, 7-day schedule, Day 7, N 8
[16] = 50 mg, ECT 50 mg BID, 7-day schedule, Day 7, N 7

## COc1cc(Nc2ncc3c(n2)-c2ccc(Cl)cc2C(c2c(F)cccc2OC)=NC3)ccc1C(=O)O [MLN8237, alisertib]
[1]; 13 patients with SD
  duration of stable disease: […]
[1]; 47 response-evaluable patients
  patients achieving partial response (PR): […]
  patients with partial response (PR): […]
[1]; N = 58
  patients discontinued due to progressive disease: 64%
Mantle cell lymphoma
  tumor growth: inhibit tumor growth
AAK [2]
  Ki: […]
PTCL cell lines
  effect on PTCL cell lines: induces endo-reduplication and apoptosis
AAK [3]
  IC50: […]
[4]
  aqueous solubility: low
Xenograft MM model; P = 0.0044
  overall survival: significantly increased
Xenograft MM model; P = 0.007
  tumor burden: significantly reduced
[5]
  on-study deaths considered treatment-related: none
[6]; ECT 7-day schedule, BID
  MTD: […]
[6]; PIC 14-day schedule, QD
  MTD: […]
[6]; human, in vivo, 7 days
  recommended phase II dose: […]
Aurora B kinase
  IC50: […]
[7]
  effect on MM cells: mitotic spindle abnormalities, mitotic accumulation, and apoptosis
[8]; ECT 30 mg BID, 7-day schedule, Day 7, N 3
  Geometric mean CLss/F (CV, %): […]
[8]; ECT 40 mg BID, 7-day schedule, Day 7, n=7
  Geometric mean CLss/F (CV, %): […]
[8]; ECT 50 mg BID, 7-day schedule, Day 7, N 7
  Geometric mean CLss/F (CV, %): […]
[8]; all formulations, CV 69 %, n = 42
  Mean CLss/F: […]
[8]; [12]
  AUC(0-t): […]
  Tmax: […]
[8]; [13]
  AUC(0-t): […]
  Tmax: […]
[8]; 30 mg, ECT 30 mg BID, 7-day schedule, Day 7, n=1, read-out: Mean t1/2 (sd) (converted)
  half-life: […]
[8]; [14]
  AUC(0-t): […]
  Tmax: […]
[8]; [15]
  AUC(0-t): […]
  Tmax: […]
[8]; 40 mg, ECT 40 mg BID, 7-day schedule, Day 7, n=4, read-out: Mean t1/2 (sd) (converted)
  half-life: […]
[8]; 50 mg, ECT 50 mg BID, 7-day schedule, Day 1, first dose, N 10
  Tmax: […]
[8]; 50 mg, ECT 50 mg BID, 7-day schedule, Day 1, first dose, n=9
  AUC(0-t): […]
[8]; [16]
  AUC(0-t): […]
  Tmax: […]
[8]; 50 mg, ECT 50 mg BID, 7-day schedule, Day 7, n=5, read-out: Mean t1/2 (sd) (converted)
  half-life: […]
[8]; multiple-dose administration, PIC and ECT, read-out: overall mean steady-state t1/2 (terminal half-life) (converted)
  half-life: […]
[8]; multiple-dose administration, PIC and ECT, read-out: steady-state t1/2, range
  half-life: […]
[9]; 48 treated patients
  CR: […]
  PR: […]
  overall response rate: […]
  patients achieving SD: […]
[9]
  patients with T-cell lymphoma who had a response: […]
[10]; N = 58
  patients reporting drug-related AEs: […]
[10]; all cohorts
  grade 3 or higher febrile neutropenia, frequency: […]
[10]; all cohorts, N = 58
  grade ≥3 drug-related anemia, patients: […]
  grade ≥3 drug-related leukopenia, patients: […]
  grade ≥3 drug-related neutropenia, patients: […]
  grade ≥3 drug-related thrombocytopenia, patients: […]
[10]; all doses and schedules
  Alopecia, drug-related AE, All grades: […]
  Anemia, drug-related AE, All grades: […]
  Anemia, drug-related AE, Grade ≥3: […]
  Decreased WBC count, drug-related AE, All grades: […]
  Decreased WBC count, drug-related AE, Grade ≥3: […]
  Diarrhea, drug-related AE, All grades: […]
  Diarrhea, drug-related AE, Grade ≥3: […]
  Fatigue, drug-related AE, All grades: […]
  Fatigue, drug-related AE, Grade ≥3: […]
  Febrile neutropenia, drug-related AE, All grades: […]
  Febrile neutropenia, drug-related AE, Grade ≥3: […]
  Leukopenia, drug-related AE, All grades: […]
  Leukopenia, drug-related AE, Grade ≥3: […]
  Lymphopenia, drug-related AE, All grades: […]
  Lymphopenia, drug-related AE, Grade ≥3: […]
  Nausea, drug-related AE, All grades: […]
  Neutropenia, drug-related AE, All grades: […]
  Neutropenia, drug-related AE, Grade ≥3: […]
  Somnolence, drug-related AE, All grades: […]
  Stomatitis, drug-related AE, All grades: […]
  Stomatitis, drug-related AE, Grade ≥3: […]
  Thrombocytopenia, drug-related AE, All grades: […]
  Thrombocytopenia, drug-related AE, Grade ≥3: […]
  Vomiting, drug-related AE, All grades: […]
[10]; during treatment or within 30 days of last dose
  On-study deaths: […]
[10]; in vivo
  discontinued treatment due to drug-related bullous dermatitis: […]
  discontinued treatment due to drug-related confusion: […]
  discontinued treatment due to drug-related thrombocytopenia: […]
[10]; patients with advanced heme-lymphatic malignancies
  tolerability: generally well tolerated
[10]; safety population
  Any AE resulting in discontinuation: […]
  Any drug-related AE: […]
  Any drug-related grade ≥3 AE: […]
  Any treatment-emergent AE: […]
  Any treatment-emergent grade ≥3 AE: […]
  Any treatment-emergent serious AE: […]
[11]
  maximum tolerated dose (MTD): […]
